Data published in publication PMC6858373 (Scientific Reports, 2019).
Counter-ions that a name gives are not always drawn. Like-named read-outs stand apart in the source and are kept apart here.

Legend:
[1] = target: T1, FGF14:Nav1.6 C-tail complex (Homo sapiens, UniProt Q92915+Q9UQD0); assay: Split-luciferase complementation assay (LCA) in Clone V double stable HEK293 cells; type: cell-based; conditions: for Split Luciferase Assay % Lum Set 1 / Split Luciferase Assay Z-score Set 1: biological replicate Set 1; for Split Luciferase Assay % Lum Set 1 / Split Luciferase Assay %Lum Set 2: normalized to on-plate 0.3% DMSO controls (n=16 per plate); for Split Luciferase Assay %Lum Set 2 / Split Luciferase Assay Z-score Set 2: biological replicate Set 2; for Split Luciferase Assay Z-score Set 1 / Split Luciferase Assay Z-score Set 2: normalized to on-plate 0.3% DMSO controls; for Split Luciferase Assay %Lum Avg: average of Set 1 and Set 2, normalized to 0.3% DMSO controls
T1 construct: polymerase chain reaction (PCR) amplification of the FGF14 open reading frame (nt 1–855); C-terminal fragment of Nav1.6 (amino acids 1763–1976) fused with CD4ΔC-tail (amino acids 1–395); expressed in transfected cells

[2] = target: full-length P. pyralis luciferase (Photinus pyralis, UniProt P08659, K549A/L550V/N119G/N50D/S548I); type: cell-based
[3] = CC_NCI screening, LCA luminescence
[4] = CC_NCI screening, full-length luciferase counter-screen luminescence, normalized to on-plate 0.3% DMSO controls
[5] = CC_NCI screening, full-length luciferase counter-screen, normalized to on-plate 0.3% DMSO controls
[6] = CC_NCI screening, normalized to on-plate 0.3% DMSO controls

T1 sequence (Q92915 1-252 isoform Q92915-2): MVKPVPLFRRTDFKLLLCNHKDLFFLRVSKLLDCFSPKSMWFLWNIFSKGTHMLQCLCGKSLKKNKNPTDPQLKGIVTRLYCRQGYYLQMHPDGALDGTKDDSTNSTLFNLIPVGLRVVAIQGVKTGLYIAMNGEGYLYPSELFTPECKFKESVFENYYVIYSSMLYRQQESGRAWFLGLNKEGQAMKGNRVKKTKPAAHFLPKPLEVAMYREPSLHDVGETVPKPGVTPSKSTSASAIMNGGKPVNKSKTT
T1 sequence (Q9UQD0 1763-1976 limits assumed): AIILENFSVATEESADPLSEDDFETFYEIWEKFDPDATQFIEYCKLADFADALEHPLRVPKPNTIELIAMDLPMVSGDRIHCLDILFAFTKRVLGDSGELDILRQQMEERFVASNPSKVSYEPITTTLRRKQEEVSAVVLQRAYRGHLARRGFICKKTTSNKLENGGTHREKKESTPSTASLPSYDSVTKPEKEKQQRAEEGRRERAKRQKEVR
full-length P. pyralis luciferase, sequence (P08659 whole entry N50D/N119G/S548I/K549A/L550V, looked up): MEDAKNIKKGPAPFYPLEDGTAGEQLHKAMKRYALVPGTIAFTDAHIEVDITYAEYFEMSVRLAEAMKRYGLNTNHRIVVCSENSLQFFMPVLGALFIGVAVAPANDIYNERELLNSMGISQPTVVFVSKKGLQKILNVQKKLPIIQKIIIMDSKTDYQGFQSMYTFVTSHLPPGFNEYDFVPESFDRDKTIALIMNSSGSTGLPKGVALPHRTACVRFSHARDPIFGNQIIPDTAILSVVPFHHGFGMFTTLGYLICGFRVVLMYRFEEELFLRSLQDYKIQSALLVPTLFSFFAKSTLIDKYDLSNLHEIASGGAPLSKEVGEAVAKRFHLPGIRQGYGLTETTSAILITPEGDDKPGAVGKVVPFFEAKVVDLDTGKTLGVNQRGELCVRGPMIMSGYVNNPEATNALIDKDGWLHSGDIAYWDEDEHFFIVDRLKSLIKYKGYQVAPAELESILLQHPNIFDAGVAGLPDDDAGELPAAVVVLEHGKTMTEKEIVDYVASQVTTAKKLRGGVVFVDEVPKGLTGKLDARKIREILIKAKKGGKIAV

SMILES: COC1=C2C[C@@H](C)C[C@H](OC)[C@H](O)[C@@H](C)/C=C(\C)[C@H](OC(N)=O)[C@@H](OC)/C=C\C=C(/C)C(=O)NC(=CC1=O)C2=O [GELDENAMYCIN]
- Split Luciferase Assay % Lum Set 1 [1, 3]: 70.99%
- Split Luciferase Assay %Lum Set 2 [1, 3]: 86.35%
- Split Luciferase Assay Z-score Set 1 ([1]; CC_NCI screening, LCA): -2.34
- Split Luciferase Assay Z-score Set 2 ([1]; CC_NCI screening, LCA): -1.11
- Split Luciferase Assay %Lum Avg ([1]; CC_NCI screening): 78.67%
- Luciferase Assay % Lum [2, 4]: 102.35%
- Luciferase Assay Z-score [2, 5]: 0.30
- Toxicity Assay % Fluor (Clone V cells): 94.70%
- Toxicity Assay Z-score (Clone V cells): -0.74

SMILES: NC(=O)c1ncn([C@@H]2O[C@H](CO)[C@@H](O)[C@H]2O)c1N [AICAR]
- Split Luciferase Assay Z-score Set 1 ([1]; CC_NCI screening): 0.03
- Split Luciferase Assay % Lum Set 1 ([1]; CC_NCI screening): 100.34%
- Split Luciferase Assay Z-score Set 2 ([1]; CC_NCI screening): 0.84
- Split Luciferase Assay %Lum Set 2 ([1]; CC_NCI screening): 110.27%
- Split Luciferase Assay %Lum Avg [1]: 105.31%
- Luciferase Assay % Lum (full-length luciferase counter-screen) [2, 6]: 107.04%
- Luciferase Assay Z-score (full-length luciferase counter-screen) [2, 6]: 0.90
- Toxicity Assay % Fluor (CTB cell viability fluorescence) (Clone V cells): 108.29%
- Toxicity Assay Z-score (CTB cell viability) (Clone V cells): 1.16

SMILES: COc1cccc(-c2cc(=O)c3ccccc3o2)c1N [PD 98059]
- Split Luciferase Assay % Lum Set 1 [1, 3]: 103.60%
- Split Luciferase Assay %Lum Set 2 [1, 3]: 106.11%
- Split Luciferase Assay Z-score Set 1 ([1]; CC_NCI screening, LCA): 0.29
- Split Luciferase Assay Z-score Set 2 ([1]; CC_NCI screening, LCA): 0.50
- Split Luciferase Assay %Lum Avg ([1]; CC_NCI screening): 104.86%
- Luciferase Assay % Lum [2, 4]: 90.17%
- Luciferase Assay Z-score [2, 5]: -1.26
- Toxicity Assay % Fluor (Clone V cells): 88.34%
- Toxicity Assay Z-score (Clone V cells): -1.63

SMILES: CCc1cc(Nc2nccc(-c3c(-c4ccc(OC)c(C(=O)Nc5c(F)cccc5F)c4)nc4ccccn34)n2)c(OC)cc1N1CCC(N2CCN(S(C)(=O)=O)CC2)CC1 [GSK1904529A]
- Split Luciferase Assay % Lum Set 1 [1, 3]: 116.65%
- Split Luciferase Assay %Lum Set 2 [1, 3]: 92.59%
- Split Luciferase Assay Z-score Set 1 ([1]; CC_NCI screening, LCA): 1.35
- Split Luciferase Assay Z-score Set 2 ([1]; CC_NCI screening, LCA): -0.60
- Split Luciferase Assay %Lum Avg ([1]; CC_NCI screening): 104.62%
- Luciferase Assay % Lum [2, 4]: 86.97%
- Luciferase Assay Z-score [2, 5]: -1.67
- Toxicity Assay % Fluor (Clone V cells): 100.76%
- Toxicity Assay Z-score (Clone V cells): 0.11

SMILES: Cn1cc(/C=C2\C(=O)Nc3cccnc32)c2ccccc21 [GW 441756]
- Split Luciferase Assay Z-score Set 1 ([1]; CC_NCI screening): -0.50
- Split Luciferase Assay % Lum Set 1 ([1]; CC_NCI screening): 93.82%
- Split Luciferase Assay Z-score Set 2 ([1]; CC_NCI screening): -2.30
- Split Luciferase Assay %Lum Set 2 ([1]; CC_NCI screening): 71.78%
- Split Luciferase Assay %Lum Avg [1]: 82.80%
- Luciferase Assay % Lum (full-length luciferase counter-screen) [2, 6]: 109.93%
- Luciferase Assay Z-score (full-length luciferase counter-screen) [2, 6]: 1.27
- Toxicity Assay % Fluor (CTB cell viability fluorescence) (Clone V cells): 107.67%
- Toxicity Assay Z-score (CTB cell viability) (Clone V cells): 1.07

SMILES: O=C(c1ccc(OCCN2CCCCC2)cc1)c1c(-c2ccc(O)cc2)sc2cc(O)ccc12 [Raloxifene]
- Split Luciferase Assay % Lum Set 1 [1, 3]: 56.86%
- Split Luciferase Assay %Lum Set 2 [1, 3]: 52.02%
- Split Luciferase Assay Z-score Set 1 ([1]; CC_NCI screening, LCA): -3.49
- Split Luciferase Assay Z-score Set 2 ([1]; CC_NCI screening, LCA): -3.90
- Split Luciferase Assay %Lum Avg ([1]; CC_NCI screening): 54.44%
- Luciferase Assay % Lum [2, 4]: 91.29%
- Luciferase Assay Z-score [2, 5]: -1.12
- Toxicity Assay % Fluor (Clone V cells; human, 16 h, 30 µM): 90.90%
- Toxicity Assay Z-score (Clone V cells; human, 16 h, 30 µM): -1.27

SMILES: Cn1cc(CNCC2CCN(c3ncc(C(=O)NO)cn3)CC2)c2ccccc21 [JNJ-26481585]
- Split Luciferase Assay % Lum Set 1 [1, 3]: 112.30%
- Split Luciferase Assay %Lum Set 2 [1, 3]: 109.23%
- Split Luciferase Assay Z-score Set 1 ([1]; CC_NCI screening, LCA): 0.99
- Split Luciferase Assay Z-score Set 2 ([1]; CC_NCI screening, LCA): 0.75
- Split Luciferase Assay %Lum Avg ([1]; CC_NCI screening): 110.77%
- Luciferase Assay % Lum [2, 4]: 97.58%
- Luciferase Assay Z-score [2, 5]: -0.31
- Toxicity Assay % Fluor (Clone V cells): 96.89%
- Toxicity Assay Z-score (Clone V cells): -0.43

SMILES: N#Cc1c(O)c2c(-c3ccc(-c4ccccc4O)cc3)csc2[nH]c1=O [Compound A-769662]
- Split Luciferase Assay Z-score Set 1 ([1]; CC_NCI screening): 1.52
- Split Luciferase Assay % Lum Set 1 ([1]; CC_NCI screening): 118.82%
- Split Luciferase Assay Z-score Set 2 ([1]; CC_NCI screening): 1.01
- Split Luciferase Assay %Lum Set 2 ([1]; CC_NCI screening): 112.35%
- Split Luciferase Assay %Lum Avg [1]: 115.59%
- Luciferase Assay % Lum (full-length luciferase counter-screen) [2, 6]: 79.85%
- Luciferase Assay Z-score (full-length luciferase counter-screen) [2, 6]: -2.58
- Toxicity Assay % Fluor (CTB cell viability fluorescence) (Clone V cells): 107.48%
- Toxicity Assay Z-score (CTB cell viability) (Clone V cells): 1.05

SMILES: COc1cccc2c1C(=O)c1c(O)c3c(c(O)c1C2=O)C[C@@](O)(C(=O)CO)C[C@@H]3O[C@H]1C[C@H](N)[C@H](O)[C@H](C)O1 [Doxorubicin hydrochloride]
- Split Luciferase Assay % Lum Set 1 [1, 3]: 49.25%
- Split Luciferase Assay %Lum Set 2 [1, 3]: 58.26%
- Split Luciferase Assay Z-score Set 1 ([1]; CC_NCI screening, LCA): -4.10
- Split Luciferase Assay Z-score Set 2 ([1]; CC_NCI screening, LCA): -3.40
- Split Luciferase Assay %Lum Avg ([1]; CC_NCI screening): 53.75%
- Luciferase Assay % Lum [2, 4]: 78.74%
- Toxicity Assay % Fluor (Clone V cells; human, 16 h, 30 µM): 94.10%
- Toxicity Assay Z-score (Clone V cells; human, 16 h, 30 µM): -0.82

SMILES: c1cc(CN2CCCNCCNCCCNCC2)ccc1CN1CCCNCCNCCCNCC1 [Plerixafor]
- Split Luciferase Assay % Lum Set 1 [1, 3]: 112.30%
- Split Luciferase Assay %Lum Set 2 [1, 3]: 111.31%
- Split Luciferase Assay Z-score Set 1 ([1]; CC_NCI screening, LCA): 0.99
- Split Luciferase Assay Z-score Set 2 ([1]; CC_NCI screening, LCA): 0.92
- Split Luciferase Assay %Lum Avg ([1]; CC_NCI screening): 111.81%
- Luciferase Assay % Lum [2]: 97.43%
- Luciferase Assay Z-score [2]: -0.33
- Toxicity Assay % Fluor (Clone V cells; human, 16 h, 30 µM): 92.88%
- Toxicity Assay Z-score (Clone V cells; human, 16 h, 30 µM): -1.00

SMILES: CC(C)[C@H](NS(=O)(=O)c1ccc(-c2ccc(Br)cc2)cc1)C(=O)O [PD 166793]
- Split Luciferase Assay Z-score Set 1 ([1]; CC_NCI screening): 0.38
- Split Luciferase Assay % Lum Set 1 ([1]; CC_NCI screening): 104.69%
- Split Luciferase Assay Z-score Set 2 ([1]; CC_NCI screening): -1.11
- Split Luciferase Assay %Lum Set 2 ([1]; CC_NCI screening): 86.35%
- Split Luciferase Assay %Lum Avg [1]: 95.52%
- Luciferase Assay % Lum (full-length luciferase counter-screen) [2, 6]: 99.99%
- Luciferase Assay Z-score (full-length luciferase counter-screen) [2, 6]: 0.00
- Toxicity Assay % Fluor (CTB cell viability fluorescence) (Clone V cells): 105.53%
- Toxicity Assay Z-score (CTB cell viability) (Clone V cells): 0.77

SMILES: CCn1c(-c2nonc2N)nc2cnc(Oc3cccc(NC(=O)c4ccc(OCCN5CCOCC5)cc4)c3)cc21 [GSK 269962A]
- Split Luciferase Assay % Lum Set 1 [1, 3]: 26.42%
- Split Luciferase Assay %Lum Set 2 [1, 3]: 31.21%
- Split Luciferase Assay Z-score Set 1 ([1]; CC_NCI screening, LCA): -5.95
- Split Luciferase Assay Z-score Set 2 ([1]; CC_NCI screening, LCA): -5.60
- Split Luciferase Assay %Lum Avg ([1]; CC_NCI screening): 28.81%
- Luciferase Assay % Lum [2, 4]: 79.80%
- Luciferase Assay Z-score [2, 5]: -2.59
- Toxicity Assay % Fluor (Clone V cells; human, 16 h, 30 µM): 101.41%
- Toxicity Assay Z-score (Clone V cells; human, 16 h, 30 µM): 0.20
